Laboratory results taken from patent US9834526B2 (MERCK SHARP & DOHME CORP., priority 2013, dated 2017).

Target: T1, wildtype HIV-1 protease (Human immunodeficiency virus type 1 group M subtype B, UniProt P04585)
T1 construct: preincubated with the HIV-1 protease (wild type) enzyme in assay buffer; made in house; host or cells: Escherichia coli
Assay: Inhibition of microbial expressed HIV protease (Pepcleav)
Type: biochemical
Conditions: wild type HIV-1 protease expressed in E. coli, 20 pM enzyme, 400 micromolar peptide substrate, pH 5.5, LC-MS readout; mean of at least two independent experiments
Protocol: Assay for Inhibition of Microbial Expressed HIV Protease (“Pepcleav”)
Studies of the inhibition of the wildtype HIV-1 protease (which was expressed in Escherichia coli) were carried out with a peptide substrate [Val-Ser-Gln-Asn-(βnaphthyl)Ala-Pro-Ile-Val (SEQ ID NO:1)]. The inhibitor was first preincubated with the HIV-1 protease (wild type) enzyme in assay buffer (50 mM sodium acetate, pH 5.5, 100 mM NaCl, and 0.1% BSA) for 30 minutes at room temperature. Substrate was added to 400 micromolar in a total volume of 20 microliters containing 20 picomolar HIV-1 protease (final) and the reaction was incubated for 1 hour at 30° C. The reaction was quenched with the addition of formic acid and indinavir to 0.012% and 150 nM final concentrations, respectively. The product formation was determined after separation of product and substrate on a Zorbax Eclipse XDB-C18 column connected to an API 4000 mass spectrometer (Applied Biosystems) with multiple reaction monitoring (transitions were 644.5/428.9 and 615.4/422.2 (M1/M3) for product and indinavir respectively). The extent of inhibition of the reaction was determined from the peak area of the products. Analysis of the products, independently synthesized, provided quantitation standards and confirmation of the product composition.

For `N[C@H](C(=O)Nc1cccc(F)c1CC[C@@H]1CN[C@H](CO)[C@@H](COC(=O)NCC(F)(F)F)O1)C(c1ccc(F)cc1)c1ccc(F)cc1` [Example 63, 4-fluoro-N-(3-fluoro-2-{2-[(2R,5R,6S)-5-(hydroxymethyl)-6-({[(2,2,2-trifluoroethyl)carbamoyl]oxy}methyl)morpholin-2-yl]ethyl}phenyl)-β-(4-fluorophenyl)-L-phenylalaninamide], the IC50 was 130 nM.

Molecule `COC(=O)N[C@H](C(=O)Nc1ccccc1CC[C@@H]1CN[C@H](COC(=O)NCC(F)(F)F)[C@@H](CSc2nnc(-c3ccncc3)o2)O1)C(c1ccccc1)c1ccccc1` [Example 43] has an IC50 of 0.01 nM.

`COC(=O)N[C@H](C(=O)Nc1ccccc1CC[C@@H]1CN[C@H](C)[C@@H](C[S@@+]([O-])c2ccc(Cl)cc2)O1)C(c1ccccc1)c1ccccc1` [Example 41, N-(2-{2-[(2R,5R,6S)-6-{[(R)-(4-chlorophenyl)sulfinyl]methyl}-5-methylmorpholin-2-yl]ethyl}phenyl)-Nα-(methoxycarbonyl)-β-phenyl-L-phenylalaninamide] gave an IC50 of 890 nM.

`N[C@H](C(=O)Nc1cccc(F)c1OC[C@@H]1CN[C@@H]2c3ccccc3C[C@@H]2O1)C(c1ccccc1)c1ccccc1` [Example 60, N-{3-fluoro-2-[(2S,4aR,9aS)-2,3,4,4a,9,9a-hexahydroindeno [2,1-b][1,4]oxazin-2-ylmethoxy]phenyl}-β-phenyl-L-phenylalaninamide] gave an IC50 of 610 nM.

In the case of `COC(=O)N[C@H](C(=O)Nc1ccccc1CC[C@@H]1CN[C@H](C)[C@@H](CSc2nc(C(F)(F)F)nc3ccccc23)O1)C(c1ccccc1)c1ccccc1` [Example 14, methyl N-[(1S)-1-benzhydryl-2-[[2-[2-[(2R,5R,6S)-5-methyl-6-[[2-(trifluoromethyl)quinazolin-4-yl]sulfanylmethyl]morpholin-2-yl]ethyl]phenyl]amino]-2-oxo-ethyl]carbamate], the IC50 is reported as 14.2 nM.

With `COC(=O)N[C@H](C(=O)Nc1ccccc1CC[C@@H]1CN[C@H](COC(C)=O)[C@@H](CSc2nnc(-c3ccncc3)o2)O1)C(c1ccccc1)c1ccccc1` [Example 30, [(2S,3R,6R)-6-[2-(2-{[N-(methoxycarbonyl)-β-phenyl-L-phenylalanyl]amino}phenyl)ethyl]-2-({[5-(pyridin-4-yl)-1,3,4-oxadiazol-2-yl]sulfanyl}methyl)morpholin-3-yl]methyl acetate] the IC50 was 0.0334 nM.

In the case of `C[C@@H]1O[C@H](CCc2c(F)cccc2NC(=O)[C@@H](N)C(c2ccc(F)cc2)c2ccc(F)cc2)CN[C@@H]1COC(=O)N[C@@H](c1ccc(F)cc1)C1CC1` [Example 59, N-[2-(2-{(2R,5R,6S)-5-[({[(R)-cyclopropyl(4-fluorophenyl)methyl]carbamoyl}oxy)methyl]-6-methylmorpholin-2-yl}ethyl)-3-fluorophenyl]-4-fluoro-β-(4-fluorophenyl)-L-phenylalaninamide], the IC50 is reported as 17 nM.

Molecule `COC(=O)N[C@H](C(=O)Nc1ccccc1CC[C@@H]1CN[C@H](C)[C@@H](CSc2ccc(Cl)cn2)O1)C(c1ccccc1)c1ccccc1` [Example 8, methyl N-[(1S)-1-benzhydryl-2-[[2-[2-[(2R,5R,6S)-6-[(5-chloro-2-pyridyl)sulfanylmethyl]-5-methyl-morpholin-2-yl]ethyl]phenyl]amino]-2-oxo-ethyl]carbamate] has an IC50 of 8.35 nM.

`COC(=O)N[C@H](C(=O)Nc1ccccc1CC[C@@H]1CN[C@H](C)[C@@H](CSc2ncc[nH]2)O1)C(c1ccccc1)c1ccccc1` [Example 29, methyl N-[(1S)-1-benzhydryl-2-[[2-[2-[(2R,5R,6S)-6-(1H-imidazol-2-ylsulfanylmethyl)-5-methyl-morpholin-2-yl]ethyl]phenyl]amino]-2-oxo-ethyl]carbamate] was tested, and the IC50 was 235 nM.

`C[C@@H]1O[C@H](CCc2c(F)cccc2NC(=O)[C@@H](N)C(c2ccc(F)cc2)c2ccc(F)cc2)CN[C@@H]1COC(=O)N[C@@H](C)C(F)(F)F` [Example 37, 4-fluoro-N-[3-fluoro-2-(2-{(2R,5R,6S)-6-methyl-5-[({[(1S)-2,2,2-trifluoro-1-methylethyl]carbamoyl}oxy)methyl]morpholin-2-yl}ethyl)phenyl]-β-(4-fluorophenyl)-L-phenylalaninamide] showed an IC50 of 3.1 nM.
